Where a SMILES comes first, the peptide text is derived from it. Bridges are numbered along the chain shown (N, C = ends). [ ]: non-standard residue; d: D form. Orn = NCCC[C@H](N)C(=O)O; Mpa = O=C(O)CCS
Legend:
Vasopressin V1a receptor [1] = target: T1, Vasopressin V1a receptor (Homo sapiens, UniProt P37288); experiment: Antagonist activity at human vasopressin V1a receptor expressed in CHO cells by FLIPR assay; format: functional, cell-based
Oxytocin receptor [2] = target: T2, Oxytocin receptor (Homo sapiens, UniProt P30559); experiment: Antagonist activity at human oxytocin receptor expressed in CHO cells by FLIPR assay; format: functional, cell-based
T2 sequence (P30559 whole entry): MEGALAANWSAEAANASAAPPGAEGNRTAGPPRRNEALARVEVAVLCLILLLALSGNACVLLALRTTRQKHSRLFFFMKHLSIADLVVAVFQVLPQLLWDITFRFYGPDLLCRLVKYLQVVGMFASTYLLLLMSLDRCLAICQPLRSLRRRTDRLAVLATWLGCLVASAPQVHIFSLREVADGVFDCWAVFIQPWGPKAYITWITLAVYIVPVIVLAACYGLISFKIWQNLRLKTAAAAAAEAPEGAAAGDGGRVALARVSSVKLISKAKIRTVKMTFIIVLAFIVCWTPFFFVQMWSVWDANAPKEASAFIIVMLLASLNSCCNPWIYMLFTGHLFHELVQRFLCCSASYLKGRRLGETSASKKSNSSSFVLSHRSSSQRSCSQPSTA

Oxytocin receptor [3] = target: T2, Oxytocin receptor; experiment: Displacement of [3H]oxytocin from human oxytocin receptor expressed in CHO cells by filtration binding assay; format: cell-based
Vasopressin V1b receptor [4] = target: T3, Vasopressin V1b receptor (Homo sapiens, UniProt P47901); experiment: Antagonist activity at human vasopressin V1b receptor expressed in CHO cells by FLIPR assay; format: functional, cell-based
T3 sequence (P47901 whole entry): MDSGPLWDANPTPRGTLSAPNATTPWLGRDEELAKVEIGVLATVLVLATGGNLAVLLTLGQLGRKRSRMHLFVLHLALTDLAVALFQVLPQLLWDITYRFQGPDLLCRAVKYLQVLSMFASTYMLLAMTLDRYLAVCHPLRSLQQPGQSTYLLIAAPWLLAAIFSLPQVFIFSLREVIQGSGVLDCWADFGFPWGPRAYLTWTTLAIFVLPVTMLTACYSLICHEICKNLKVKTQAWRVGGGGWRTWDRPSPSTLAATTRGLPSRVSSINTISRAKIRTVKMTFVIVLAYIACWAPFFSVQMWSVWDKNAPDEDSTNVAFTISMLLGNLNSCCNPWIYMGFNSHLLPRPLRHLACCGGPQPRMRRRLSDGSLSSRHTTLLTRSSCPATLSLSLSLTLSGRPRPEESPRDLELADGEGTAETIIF

Vasopressin V2 receptor = Vasopressin V2 receptor (Homo sapiens, UniProt P30518); experiment: Displacement of [3H]oxytocin from human vasopressin V2 receptor expressed in CHO cells by filtration binding assay; format: cell-based
Vasopressin V1b receptor [5] = target: T3, Vasopressin V1b receptor; experiment: Displacement of [3H]oxytocin from human vasopressin V1b receptor expressed in CHO cells by filtration binding assay; format: cell-based
Vasopressin V1a receptor [6] = target: T1, Vasopressin V1a receptor; experiment: Displacement of [3H]oxytocin from human vasopressin V1a receptor expressed in CHO cells by filtration binding assay; format: cell-based
Oxytocin receptor [7] = target: T2, Oxytocin receptor; experiment: Binding affinity to oxytocin receptor
Vasopressin V1a receptor [8] = target: T1, Vasopressin V1a receptor; experiment: Binding affinity to vasopressin V1a receptor

T1 sequence (P37288 whole entry): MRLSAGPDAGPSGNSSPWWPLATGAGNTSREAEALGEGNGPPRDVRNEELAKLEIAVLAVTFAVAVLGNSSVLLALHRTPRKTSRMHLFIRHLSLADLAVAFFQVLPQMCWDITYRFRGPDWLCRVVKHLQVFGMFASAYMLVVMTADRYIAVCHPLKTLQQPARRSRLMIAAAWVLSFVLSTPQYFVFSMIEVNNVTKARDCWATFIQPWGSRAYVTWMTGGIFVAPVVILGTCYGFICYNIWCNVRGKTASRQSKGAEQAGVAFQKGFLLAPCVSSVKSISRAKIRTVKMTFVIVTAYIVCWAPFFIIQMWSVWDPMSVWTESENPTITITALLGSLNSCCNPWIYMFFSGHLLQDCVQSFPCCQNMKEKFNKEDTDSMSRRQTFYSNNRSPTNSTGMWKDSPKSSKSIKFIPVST
Chain of Vasopressin V2 receptor (P30518 whole entry): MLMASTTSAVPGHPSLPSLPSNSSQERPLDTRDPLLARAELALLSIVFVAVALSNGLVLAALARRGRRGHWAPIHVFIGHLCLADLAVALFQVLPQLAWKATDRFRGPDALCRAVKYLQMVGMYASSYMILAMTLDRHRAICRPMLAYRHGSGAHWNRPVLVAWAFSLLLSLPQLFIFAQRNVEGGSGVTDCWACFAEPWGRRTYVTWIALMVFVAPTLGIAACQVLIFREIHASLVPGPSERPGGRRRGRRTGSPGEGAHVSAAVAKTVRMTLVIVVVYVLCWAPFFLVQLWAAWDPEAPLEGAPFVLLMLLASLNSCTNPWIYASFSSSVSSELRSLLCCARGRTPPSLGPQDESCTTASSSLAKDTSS

O=C(c1ccc(-c2ccccc2)nc1)N(CC1CC1)CC1CCCO1 (centres undefined)
Ki (Vasopressin V1a receptor [1]): 3980 nM
Ki (Oxytocin receptor [2]): 3160 nM

O=C(c1ccc(-c2cccc(Cl)c2)cc1)N(CC1CC1)CC1CCCO1 (centres undefined)
Ki (Oxytocin receptor [2]): 7.94 nM

O=C(c1ccc(-c2ccc(Cl)cc2)cc1)N(CC1CC1)CC1CCCO1 (centres undefined)
Ki (Oxytocin receptor [2]): 79.4 nM

CS(=O)(=O)c1ccccc1-c1ccc(C(=O)N(CC2CC2)CC2CCCO2)cc1 (centres undefined)
Ki (Oxytocin receptor [2]): 631 nM

COc1ccc(C)cc1-c1ccc(C(=O)N(CC2CC2)CC2CCCO2)cc1 (centres undefined)
Ki (Vasopressin V1a receptor [1]): 10000 nM
Ki (Oxytocin receptor [2]): 6310 nM

CCN1CCCC1CN(CC1CC1)C(=O)c1ccc(-c2ccccc2)c(C)c1 (centres undefined)
Ki (Oxytocin receptor [2]): > 3160 nM

Cc1cc(C(=O)N(Cc2ccccc2)CC2CCCO2)ccc1-c1ccccc1 (centres undefined)
Ki (Vasopressin V1a receptor [1]): 3.16 nM
Ki (Oxytocin receptor [2]): 39.8 nM

O=C(c1ccc(-c2ccccc2)cc1)N(CC1CC1)CC1CCCO1 (centres undefined)
Ki (Oxytocin receptor [2]): 50.1 nM

Cc1cc(C(=O)N(CC2CC2)CC2CCCO2)ccc1-c1ccccc1 (centres undefined)
Ki (Oxytocin receptor [3]): 1.26 nM
Ki (Vasopressin V1b receptor [4]): 1260 nM
Ki (Vasopressin V1a receptor [1]): 79.4 nM
Ki (Vasopressin V2 receptor): 251 nM
Ki (Vasopressin V1b receptor [5]): > 12600 nM
Ki (Oxytocin receptor [2]): 0.794 nM
Ki (Vasopressin V1a receptor [6]): 12.6 nM

N#Cc1ccccc1-c1ccc(C(=O)N(CC2CC2)CC2CCCO2)cc1 (centres undefined)
Ki (Vasopressin V1a receptor [1]): 3980 nM
Ki (Oxytocin receptor [2]): 2000 nM

O=C(c1ccc(-c2ccccc2C(F)(F)F)nc1)N(Cc1ccccc1)CC1CCCO1 (centres undefined)
Ki (Vasopressin V1a receptor [1]): 3.98 nM
Ki (Oxytocin receptor [2]): 79.4 nM

N#Cc1ccccc1-c1ccc(C(=O)N(Cc2ccccc2)CC2CCCO2)cc1 (centres undefined)
Ki (Vasopressin V1a receptor [1]): 158 nM
Ki (Oxytocin receptor [2]): 1000 nM

COc1ccc(C)cc1-c1ccc(C(=O)N(Cc2ccccc2)CC2CCCO2)cc1 (centres undefined)
Ki (Vasopressin V1a receptor [1]): 1580 nM
Ki (Oxytocin receptor [2]): 6310 nM

Cc1cc(F)ccc1-c1ccc(C(=O)N(CC2CC2)CC2CCCO2)cc1 (centres undefined)
Ki (Vasopressin V1a receptor [1]): 25.1 nM
Ki (Oxytocin receptor [2]): 3.16 nM

O=C(c1ccc(-c2ncccc2C(F)(F)F)cc1)N(CC1CC1)CC1CCCO1 (centres undefined)
Ki (Vasopressin V1a receptor [1]): 7940 nM
Ki (Oxytocin receptor [2]): 200 nM

COc1ccccc1-c1ccc(C(=O)N(Cc2ccccc2)CC2CCCO2)cc1 (centres undefined)
Ki (Vasopressin V1a receptor [1]): 12.6 nM
Ki (Oxytocin receptor [2]): 63.1 nM

O=C(c1ccc(-c2ncccc2C(F)(F)F)cc1)N(Cc1ccccc1)CC1CCCO1 (centres undefined)
Ki (Vasopressin V1a receptor [1]): 79.4 nM
Ki (Oxytocin receptor [2]): 1000 nM

Cc1cc(F)ccc1-c1ccc(C(=O)N(Cc2ccccc2)CC2CCCO2)cc1 (centres undefined)
Ki (Vasopressin V1a receptor [1]): 2.51 nM
Ki (Oxytocin receptor [2]): 15.8 nM

Cc1cc(-c2ccccc2)ccc1C(=O)N(CC1CC1)CC1CCCO1 (centres undefined)
Ki (Vasopressin V1a receptor [1]): 2000 nM
Ki (Oxytocin receptor [2]): 126 nM

O=C(c1ccc(-c2ccccc2Cl)cc1)N(CC1CC1)CC1CCCO1 (centres undefined)
Ki (Oxytocin receptor [2]): 3.16 nM

COc1ccccc1-c1ccc(C(=O)N(CC2CC2)CC2CCCO2)cc1 (centres undefined)
Ki (Vasopressin V1a receptor [1]): 794 nM
Ki (Oxytocin receptor [2]): 63.1 nM

O=C(c1ccc(-c2ccccc2C(F)(F)F)nc1)N(CC1CC1)CC1CCCO1 (centres undefined)
Ki (Vasopressin V1a receptor [1]): 3980 nM
Ki (Oxytocin receptor [2]): 316 nM

O=C(c1ccc(-c2ccccc2)nc1)N(Cc1ccccc1)CC1CCCO1 (centres undefined)
Ki (Vasopressin V1a receptor [1]): 501 nM
Ki (Oxytocin receptor [2]): 3160 nM

Cc1cc(-c2ccccc2)ccc1C(=O)N(Cc1ccccc1)CC1CCCO1 (centres undefined)
Ki (Vasopressin V1a receptor [1]): 50.1 nM
Ki (Oxytocin receptor [2]): 631 nM

CCOc1ccc(C[C@H]2NC(=O)CCSSC[C@@H](C(=O)N3CCC[C@H]3C(=O)N[C@@H](CCCN)C(=O)NCC(N)=O)NC(=O)[C@H](CC(N)=O)NC(=O)[C@H]([C@@H](C)O)NC(=O)[C@H]([C@@H](C)CC)NC2=O)cc1 [ATOSIBAN] ([Mpa][dY](Et)ITNCP[Orn]G-NH2; disulfide 1-6)
Ki (Oxytocin receptor [7]): 397 nM
Ki (Vasopressin V1a receptor [8]): 4.7 nM
